Patent publication US6444685B1, “N-(4-sulfonylaryl)Cyclylamine 2-hydroxyethylamines as beta-3 adrenergic receptor agonists” (Wyeth, priority 2000, dated 2002)
Where a name gives a salt, the structure may show the parent alone.

How the values were obtained:
[1] = biological target: T1, human β3 adrenergic receptor (Homo sapiens, UniProt P13945); test: cAMP accumulation (SPA) in CHO cells transfected with human β3 adrenergic receptor; assay type: cell-based; conditions: for EC50: CHO cells expressing human β3-AR, cAMP, 30 min incubation, 10^−9 M to 10^−5 M, read-out: beta-3 EC50; for beta-3 (IA) maximal response relative to isoproterenol: IA = % activity compound / % activity isoproterenol at 10^−5 M, CHO human β3 cells
T1 construct: Full length β3 AR clones (402 amino acids) containing the last 6 amino acids of hβ3— AR are prepared; expressed in transfected cells; host or cells: CHO cells
Description: (§1) The ability of compounds of this invention to treat or inhibit disorders related to insulin resistance or hyperglycemia was established with representative compounds of this invention in the following standard pharmacological test procedures, which measured the binding selectivity to the β1, β2, and β3 adrenergic receptors. Binding to the receptors was measured in Chinese Hamster ovary (CHO) cells that were transfected with adrenergic receptors. The following briefly summarizes the procedures used and results obtained.
Cloning of Human β3-AR Genomic DNA: cDNA was constructed by ligating four polymerase chain reaction (PCR) products using the following primers: an ATG-Narl fragment, sense primer 5′-[…]3′ and anti-sense primer 5′[…]3′; a Narl-Accl fragment, 5′[…]3′ as sense and 5′[…]3′ as anti-sense primer; an Accli-Styl fragment, sense primer 5′[…]3′ and anti-sense primer 5′[…]3′ and a Styl-TAG fragment, with sense primer 5′[…]3′ and anti-sense primer 5′[…]3′. The corresponding primer sequences are described in Mantzoros, C. S., et.al., Diabetes 45: 909-914 (1996). The four fragments are ligated into a pUC 18 plasmid (Gibco-BRL) and sequenced. Full length β3 AR clones (402 amino acids) containing the last 6 amino acids of hβ3— AR are prepared with the β3-βARpcDNA3from ATTC.
(§2) Binding Procedure: Clones expressing receptor levels of 70 to 110 fmoles/mg protein were used in the test procedures. CHO cells were grown in 24-well tissue culture plates in Dulbecco's Modified Eagle Media with 10% fetal bovine serum, MEM non-essential amino acids, Penicillin-Streptompycin and Geneticin. On the day of test procedure, growth medium was replaced with preincubation media (Dulbecco's Modified Eagle Media and incubated for 30 minutes at 37° C. Preincubation medium was replaced with 0.2 ml treatment medium containing DMEM media containing 250 μM IBMX (isobutyl-1-methylxantine) plus 1 mM ascorbic acid with test compound dissolved in DMSO. Test compounds were tested over a concentration range of 10^−9 M to 10^−5 M for β3 cells and 10^−8 to 10^−4 M for β1 and β2 transfected cells. Isoproterenol (10^−5 M) was used as an internal standard for comparison of activity. Cells were incubated at 37° C. on a rocker for 30 min with the β3 cells and 15 min for β1 and β2 cells. Incubation was stopped with the addition of 0.2N HCl and neutralized with 2.5N NaOH. The plates, containing the cells and neutralized media, were stored at −20 degrees celsius until ready to test for cAMP using the SPA test kit (Amersham).
(§3) Data Analysis and Results: Data collected from the SPA test procedure were analyzed as per cent of the maximal isoproterenol response at 10^−5 M. Activity curves were plotted using the SAS statistical and graphics software. EC50 values were generated for each compound and the maximal response (IA) developed for each compound is compared to the maximal response of isoproternol at 10^−5 M from the following formula:
(§4) IA=% activity compound/% activity isoproterenol

[2] = biological target: T2, human β2-adrenergic receptor (Homo sapiens, UniProt P07550); test: cAMP accumulation (SPA) in CHO cells transfected with human β2 adrenergic receptor; assay type: cell-based; conditions: for beta-2 (IA) maximal response relative to isoproterenol: IA = % activity compound / % activity isoproterenol at 10^−5 M, CHO human β2 cells; for EC50: CHO cells transfected with human β2-AR, cAMP, 15 min incubation, 10^−8 to 10^−4 M, read-out: beta-2 EC50
T2 construct: expressed in transfected cells; host or cells: CHO cells
Description: as §1
(§5) Transfection of CHO cells with β1 and β2 adrenergic receptors: CHO cells were transfected with human β1- or β2-adrenergic receptors as described in Tate, K. M., Eur. J. Biochem., 196:357-361 (1991).
as §2, §3, §4

[3] = biological target: T3, human β1-adrenergic receptor (Homo sapiens, UniProt P08588); test: cAMP accumulation (SPA) in CHO cells transfected with human β1 adrenergic receptor; assay type: cell-based; conditions: for EC50: CHO cells transfected with human β1-AR, cAMP, 15 min incubation, 10^−8 to 10^−4 M, read-out: beta-1 EC50; for beta-1 (IA) maximal response relative to isoproterenol: IA = % activity compound / % activity isoproterenol at 10^−5 M, CHO human β1 cells
T3 construct: expressed in transfected cells; host or cells: CHO cells
Description: as §1, §5, §2, §3, §4

T1 sequence (P13945 whole entry): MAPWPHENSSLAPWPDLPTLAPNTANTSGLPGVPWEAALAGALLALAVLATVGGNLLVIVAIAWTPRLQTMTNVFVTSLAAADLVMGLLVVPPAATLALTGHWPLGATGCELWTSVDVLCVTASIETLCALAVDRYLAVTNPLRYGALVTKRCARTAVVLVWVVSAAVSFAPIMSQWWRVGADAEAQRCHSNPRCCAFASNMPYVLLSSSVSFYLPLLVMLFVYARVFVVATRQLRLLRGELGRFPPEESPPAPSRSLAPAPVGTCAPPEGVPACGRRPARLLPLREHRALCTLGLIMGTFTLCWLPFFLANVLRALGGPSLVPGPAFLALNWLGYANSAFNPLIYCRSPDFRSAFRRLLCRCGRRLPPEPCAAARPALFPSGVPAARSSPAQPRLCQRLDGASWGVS
T2 sequence (P07550 whole entry): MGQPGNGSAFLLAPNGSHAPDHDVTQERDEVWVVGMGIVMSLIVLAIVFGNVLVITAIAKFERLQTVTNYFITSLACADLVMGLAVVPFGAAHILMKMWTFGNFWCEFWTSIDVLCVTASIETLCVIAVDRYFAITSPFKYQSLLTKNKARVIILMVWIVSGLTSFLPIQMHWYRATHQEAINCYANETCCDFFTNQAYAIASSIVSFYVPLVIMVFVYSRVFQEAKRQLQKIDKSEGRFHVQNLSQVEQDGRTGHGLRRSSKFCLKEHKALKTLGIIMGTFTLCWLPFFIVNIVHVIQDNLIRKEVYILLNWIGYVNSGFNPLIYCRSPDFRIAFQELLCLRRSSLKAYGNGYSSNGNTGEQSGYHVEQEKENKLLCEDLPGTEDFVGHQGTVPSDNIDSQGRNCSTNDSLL
T3 sequence (P08588 whole entry): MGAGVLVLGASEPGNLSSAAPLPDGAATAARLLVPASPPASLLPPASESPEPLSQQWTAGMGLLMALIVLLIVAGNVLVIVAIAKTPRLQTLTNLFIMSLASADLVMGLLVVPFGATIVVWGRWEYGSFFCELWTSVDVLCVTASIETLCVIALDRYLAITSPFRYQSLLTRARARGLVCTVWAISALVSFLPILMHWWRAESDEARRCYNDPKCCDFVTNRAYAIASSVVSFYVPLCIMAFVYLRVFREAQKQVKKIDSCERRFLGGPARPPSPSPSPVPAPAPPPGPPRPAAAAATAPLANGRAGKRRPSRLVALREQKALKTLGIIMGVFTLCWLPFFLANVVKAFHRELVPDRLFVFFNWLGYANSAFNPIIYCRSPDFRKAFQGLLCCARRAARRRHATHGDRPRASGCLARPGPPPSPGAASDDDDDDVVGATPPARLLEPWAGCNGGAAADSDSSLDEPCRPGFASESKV

| melting point | EC50 [1] [µM] | beta-3 (IA) maximal response relative to isoproterenol [1] | beta-2 (IA) maximal response relative to isoproterenol [2] | EC50 [3] [µM] | beta-1 (IA) maximal response relative to isoproterenol [3] | EC50 [2] [µM] | SMILES |
| --- | --- | --- | --- | --- | --- | --- | --- |
| 131 °C (dec.) | – | – | – | – | – | – | CS(=O)(=O)Nc1cc([C@@H](O)CNC2CCN(c3ccc(S(=O)(=O)N4CCN(CC(=O)O)CC4)cc3)CC2)ccc1O (as salt: sodium) [Example 65] |
| 80 to 82 °C | – | – | – | – | – | – | CS(=O)(=O)Nc1cc([C@@H](O)CNC2CCN(c3ccc(S(=O)(=O)N(CC(=O)O)Cc4cc(F)ccc4F)cc3)CC2)ccc1O (as salt: salt) [Example 63, 2-{(2,5-Difluorobenzyl)[(4-{4-[((2R)-2-hydroxy-2-{4-hydroxy-3-[(methylsulfonyl)-amino]phenyl}ethyl)amino]-1-piperidinyl}phenyl)sulfonyl]amino}acetic acid] |
| 170 to 172 °C | – | – | – | – | – | – | CS(=O)(=O)Nc1cc([C@@H](O)CNC2CCN(c3ccc(S(=O)(=O)NCC(=O)O)cc3)CC2)ccc1O (as salt: salt) [Example 53, 2-{[(4-{4-[((2R)-2-hydroxy-2-{4-hydroxy-3-[(methylsulfonyl)amino]phenyl}ethyl)amino]-1-piperidinyl}phenyl)sulfonyl]amino}acetic Acid] |
| 163 to 166 °C | – | – | – | – | – | – | CS(=O)(=O)Nc1cc([C@@H](O)CNC2CCN(c3ccc(S(=O)(=O)N(CC(=O)O)CC(=O)O)cc3)CC2)ccc1O (as salt: salt) [Example 55, 2-((Carboxymethyl)[(4-{4-[((2R)-2-hydroxy-2-{4-hydroxy-3-[(methylsulfonyl)amino]phenyl)ethyl)amino]-1-piperidinyl}phenyl)sulfonyl]amino}acetic Acid] |
| – | 0.006 | (1.1) | (0.14) | 10 | (0.49) | – | CC(C)CN(CC(=O)O)S(=O)(=O)c1ccc(N2CCC(NC[C@H](O)c3ccc(O)c(NS(C)(=O)=O)c3)CC2)cc1 [Example 34, [(4-{4-[(2R)-2-Hydroxy-2-(4-hydroxy-3-methanesulfonylamino-phenyl)-ethylamino]-piperidin-1-yl}-benzenesulfonyl)-isobutyl-amino]-acetic Acid] |
| – | 0.021 | (1.1) | (0.21) | 10 | (0.18) | 10 | COC(=O)N(CC(=O)O)S(=O)(=O)c1ccc(N2CCC(NC[C@H](O)c3ccc(O)c(NS(C)(=O)=O)c3)CC2)cc1 [Example 60, [[(4-{4-[((2R)-2-Hydroxy-2-{4-hydroxy-3-[(methylsulfonyl)amino]phenyl}-ethyl)amino]piperidin-1-yl}phenyl)sulfonyl](methoxycarbonyl)amino]acetic Acid] |
| – | 0.002 | (0.94) | (0.85) | – | (0.24) | 6.6 | CCOC(=O)CN(CC1CC1)S(=O)(=O)c1ccc(N2CCC(NC[C@H](O)c3ccc(O)c(NS(C)(=O)=O)c3)CC2)cc1 [Example 28, [Cyclopropylmethyl-(4-{4-[(2R)-2-hydroxy-2-(4-hydroxy-3-methanesulfonylamino-phenyl)-ethylamino]-piperidin-1-yl}-benzenesulfonyl)-amino]-acetic Acid Ethyl Ester] |
| – | 0.034 | (1.2) | (0.23) | – | (0.24) | – | CS(=O)(=O)Nc1cc([C@@H](O)CNC2CCN(c3ccc(S(=O)(=O)NCC(=O)O)cc3)CC2)ccc1O [Example 53, 2-{[(4-{4-[((2R)-2-hydroxy-2-{4-hydroxy-3-[(methylsulfonyl)amino]phenyl}ethyl)amino]-1-piperidinyl}phenyl)sulfonyl]amino}acetic Acid] |
| – | 0.016 | (0.98) | (0.07) | 2.2 | (0.59) | – | CS(=O)(=O)Nc1cc(C(O)CNC2CCN(c3ccc(S(=O)(=O)NCc4ccccc4)cc3)CC2)ccc1O (stereo not drawn) [Example 5, N-Benzyl-4-{4-[2-hydroxy-2-(4-hydroxy-3-methanesulfonylamino-phenyl)-ethylamino]-piperidin-1-yl}-benzenesulfonamide] |
| – | 0.009 | (1) | (0.19) | 4.8 | (0.85) | 0.72 | CCOC(=O)[C@@H]1CCCN1S(=O)(=O)c1ccc(N2CCC(NC[C@H](O)c3ccc(O)c(NS(C)(=O)=O)c3)CC2)cc1 [Example 36, Ethyl (2S)-1-[(4-{4-[((2R)-2-Hydroxy-2-{4-hydroxy-3-[(methylsulfonyl)amino]phenyl}ethyl)amino]-1-piperidinyl}phenyl)sulfonyl]-2-pyrrolidinecarboxylate] |
| – | 0.041 | (0.99) | (0.55) | – | (0.29) | 1 | CS(=O)(=O)Nc1cc(C(O)CNC2CCN(c3ccc(S(=O)(=O)N4CCCC4C(=O)O)cc3)CC2)ccc1O (stereo not drawn) [Example 18, 1-(4-{4-[2-Hydroxy-2-(4-hydroxy-3-methanesulfonylamino-phenyl)-ethylamino]-piperidin-1-yl}-benzenesulfonyl)-pyrrolidine-2-carboxylic Acid] |
| – | 0.03 | (1) | (0.23) | 10 | (0.42) | – | CS(=O)(=O)Nc1cc([C@@H](O)CNC2CCN(c3ccc(S(=O)(=O)N4CCC[C@H]4C(=O)O)cc3)CC2)ccc1O [Example 39, (2S)-1-[(4-{4-[((2R)-2-Hydroxy-2-{4-hydroxy-3-[(methylsulfonyl)amino]-phenyl}ethyl)amino]-1-piperidinyl}phenyl)sulfonyl]-2-pyrrolidinecarboxylic Acid] |
| 60 °C | – | – | – | – | – | – | COC(=O)N(CC(=O)O)S(=O)(=O)c1ccc(N2CCC(NC[C@H](O)c3ccc(O)c(NS(C)(=O)=O)c3)CC2)cc1 (as salt: salt) [Example 60, [[(4-{4-[((2R)-2-Hydroxy-2-{4-hydroxy-3-[(methylsulfonyl)amino]phenyl}-ethyl)amino]piperidin-1-yl}phenyl)sulfonyl](methoxycarbonyl)amino]acetic Acid] |
| 113 to 121 °C | – | – | – | – | – | – | COc1ccc(NS(=O)(=O)c2ccc(N3CCC(NC[C@H](O)COc4ccc(OCc5ccccc5)cc4)CC3)cc2)cc1OC [Example 9, 4-{4-[(2S)-3-(4-Benzyloxy-phenoxy)-2-hydroxy-propylamino]-piperidin-1-yl}-N-(3,4-dimethoxy-phenyl)-benzenesulfonamide] |
| – | 0.017 | (0.92) | (0) | – | (0.09) | – | COc1ccc(N(Cc2ccccc2)S(=O)(=O)c2ccc(N3CCC(NCC(O)COc4cccc5[nH]c(=O)[nH]c45)CC3)cc2)cc1OC (stereo not drawn) [Example 1, N-Benzyl-N-(3,4-dimethoxy-phenyl)-4-{4-[2-hydroxy-3-(2-oxo-2,3-dihydro-1H-benzoimidazol-4-yloxy)-propylamino]-piperidin-1-yl}-benzenesulfonamide] |
